Several values for one entry are separate records, joined by “and”; a condition that tells them apart may be missing. Equal entries are not always repeated. Where two headings read alike, the source gives them in different places.
Experiments:
human 5-HT4(b) receptor [1] = target: T1, human 5-HT4(b) receptor (Homo sapiens, UniProt Q13639); assay: Adenylyl cyclase assay (antagonist pKb, agonist/antagonist properties); format: biochemical; conditions: membranes of HEK293 cells stably expressing human 5-HT4(b) receptor; for Kb: hyphen-separated values taken as single determinations
Description: (§1) The development of HEK293 cell lines stably expressing human 5-HT4(b) receptors was described and published previously (Bach et al. 2001). Briefly, HEK293 cells (ATCC) were grown in Dulbecco's modified Eagle's medium with 10% foetal calf serum and penicillin (100 U/ml) and streptomycin (100 μg/ml). Cells were transfected with plasmid DNA (pcDNA3.1(−) containing human 5-HT4(b) receptor cDNA) using SuperFect Transfection Reagent (QIAGEN) according to the manufacturers protocol. Serial dilutions of transfected cells were plated in 96 well plates containing G418 (geneticin; Amersham) at 0.4 mg/ml, and isolated single colonies of cells transformed to the neomycin-resistant phenotype were expanded and tested for expression of serotonin receptors by measuring serotonin-stimulated adenylyl cyclase activity (Themmen et al. 1993). Transformed cells were always grown in the presence of G418 (0.4 mg/ml). For binding and adenylyl cyclase analysis, stable cell lines were grown and maintained in UltraCULTURE™ general purpose serum-free medium (BioWhittaker, Walkersville, Md., USA), supplemented with L-glutamine (2 mM), penicillin (100 U/ml) and streptomycin (100 μg/ml).
(§2) Membranes were prepared from stably transfected HEK293 cells cultured on 150-mm cell culture dishes and grown to 80% confluence in serum-free medium (UltraCULTURE™, BioWhittaker) with penicillin (10 U/ml) and 2 mM L-Glutamine (BioWhittaker). Cells were washed twice with 10 ml ice-cold HBSS, scraped with a rubber policeman in 10 ml ice-cold HBSS and collected by centrifugation at 800 g for 5 min at 4° C. The cell pellet was resuspended in 1 ml/dish ice-cold STE buffer (27% (w/v) sucrose, 50 mM Tris-HCl, pH 7.5 at 20° C., 5 mM EDTA) and homogenized with an Ultra-Turrax (IKA) homogenizer, using five 10 s bursts with 30 s cooling in ice-water between bursts. To remove nuclei, the homogenate was centrifuged at 300 g for 5 min at 4° C. and the supernatant was further centrifuged at 17000 g for 20 min at 4° C. and the supernatant removed. The crude membrane pellet was resuspended with ten strokes of tight fitting pestle B in a Dounce glass-glass homogenizer in 1 ml/dish ice-cold TE (50 mM Tris-HCl, pH 7.5 at RT, 5 mM EDTA). This procedure was repeated twice and the resuspended membranes were finally aliquotted and flash frozen in liquid nitrogen and stored at −70° C. until use.
Adenylyl cyclase activity was measured in membranes of HEK293 cells stably expressing the human 5-HT4(b) receptor (refs.) by determining conversion of [α-^32P]ATP to [^32P]cAMP in membranes prepared in STE by homogenization of cells grown and washed as described above in a Dounce glass-glass homogenizer by 10 strokes with the tight-fitting pestle. Membranes were kept on ice prior to assay. Adenylyl cyclase activities were measured in 10-μl aliquots in a final volume of 50 μl in the presence of 0.1 mM [α-^32P]ATP (1-2×10^6 cpm/assay), 4 mM MgCl2, 20 μM GTP, 1 mM EDTA, 1 mM [^3H]cAMP (ca. 10,000 cpm/assay), […] 3-isobutyl-1-methyl xanthine (IBMX; Sigma), a nucleoside triphosphate regenerating system consisting of 20 mM creatine phosphate (Sigma), 0.2 mg/ml creatine phosphokinase (Sigma) and 40 U/ml myokinase (Sigma) and additives described in the text and figures. When forskolin (Calbiochem, La Jolla, Calif., USA) was used the concentration was 100 μM. Incubations were for 20 min at 32° C. Cyclic AMP formed was quantified by the double column chromatography system of Salomon et al. (1974) as modified by Bockaert et al. (1976).
(§3) Binding and adenylyl cyclase data were analyzed by non-linear regression using Microsoft Excel with the Solver add-in, using the below equations.
Activation of adenylyl cyclase—The data were fit to the equation
where a is basal adenylyl cyclase activity, b is maximal adenylyl cyclase activity stimulated by the agonist, c is EC50, and x is the concentration of agonist.
(§4) IC50 values from competitive binding assays were converted to Kb values by the method of Cheng and Prusoff (1973).

human 5-HT4(b) receptor [2] = target: T1, human 5-HT4(b) receptor; assay: Radioligand binding assay with [3H]GR113808
Description: as §1, §2
Binding assays were performed on membranes of HEK293 cells stably expressing the human 5-HT4(b) receptor (refs.) in 96-well, round-bottom microtiter plates with total reaction volumes of 50-200 μl, containing the indicated concentration of [^3H]GR113808 with or without competing unlabelled ligand in a binding buffer containing 50 mM Tris-HCl (pH 7.5 at RT), 1 mM EDTA, 5 mM EGTA, 2 mM MgCl2, 1 mM ascorbate, 0.1% BSA and 100 μM GTP. The plates were incubated at 23 EC for 60 min and harvested onto UniFilter™-96 GF/C™ (Packard Instrument Co., Meriden, Conn., USA), presoaked in 0.3% polyethyleneimine (Sigma), using a Packard FilterMate Universal Harvester with 96-well format, and washed 4-6 times with approximately 0.25 ml/well of ice-cold buffer, containing 50 mM Tris-HCl (pH 7.0 at RT) and 2 mM MgCl2. The filters were dried and counted at approximately 40% efficiency in a Top-Count liquid scintillation counter (Packard), using 20 μl per filter well of Micro-Scint liquid scintillation cocktail (Packard).
as §3
Competitive binding assays—The data were fit to the equation
where a is non-specific binding, b is total binding in the absence of competitor, c is IC50, and x is the concentration of competitor. Where relevant, relative binding data were obtained by recalculating the data using a=0 and b=100.
as §4

hERG ion channel = target: T2, hERG ion channel (Homo sapiens, UniProt Q12809); assay: hERG tail current, patch-clamp in HEK-293 cells stably transfected with hERG; format: cell-based
T2 construct: expressed in transfected cells; host or cells: HEK-293, stably transfected
Description: The purpose of this study was to assess the effects of the above compounds on hERG (human ether-a-go-go related gene) tail current by examining the acute effect of the test compounds on the hERG ion channel in an appropriate in vitro test system. The human embryonic kidney cell (HEK-293), which has been stably transfected with hERG ion channel cDNA, is a preparation that is considered suitable for this purpose.
Four concentrations of each test compound were tested in a screening assay to determine the liability to block hERG channels. Using the patch-clamp technique, peak hERG tail current amplitude was measured prior to and following exposure to the compounds at the following nominal concentrations:
for approximately 7 to 32 minutes (n=3 cells for each concentration). In addition, peak hERG tail current amplitude was measured in a separate group of 3 cells, prior to and following exposure to vehicle (0.1% DMSO) for time-matched vehicle data correction. Terfenadine (at the submaximally effective concentration of 50 nM, n=3), a known inhibitor of the IKr current, was used as a positive control compound.
The test compound data were corrected for the mean effect of vehicle and rundown and the concentration-response data were plotted and fitted with a sigmoidal function, from which the IC50 values for each compound were calculated.

[3] = read-out: Antagonist pKb value (converted)
[4] = [3H]GR113808 competition, membranes of HEK293 cells stably expressing human 5-HT4(b) receptor, hyphen-separated values taken as single determinations, read-out: Binding affinity (pKd value) (converted)
[5] = peak hERG tail current, HEK-293, corrected for vehicle and rundown, sigmoidal fit, read-out: hERG IC50

T2 sequence (Q12809 whole entry): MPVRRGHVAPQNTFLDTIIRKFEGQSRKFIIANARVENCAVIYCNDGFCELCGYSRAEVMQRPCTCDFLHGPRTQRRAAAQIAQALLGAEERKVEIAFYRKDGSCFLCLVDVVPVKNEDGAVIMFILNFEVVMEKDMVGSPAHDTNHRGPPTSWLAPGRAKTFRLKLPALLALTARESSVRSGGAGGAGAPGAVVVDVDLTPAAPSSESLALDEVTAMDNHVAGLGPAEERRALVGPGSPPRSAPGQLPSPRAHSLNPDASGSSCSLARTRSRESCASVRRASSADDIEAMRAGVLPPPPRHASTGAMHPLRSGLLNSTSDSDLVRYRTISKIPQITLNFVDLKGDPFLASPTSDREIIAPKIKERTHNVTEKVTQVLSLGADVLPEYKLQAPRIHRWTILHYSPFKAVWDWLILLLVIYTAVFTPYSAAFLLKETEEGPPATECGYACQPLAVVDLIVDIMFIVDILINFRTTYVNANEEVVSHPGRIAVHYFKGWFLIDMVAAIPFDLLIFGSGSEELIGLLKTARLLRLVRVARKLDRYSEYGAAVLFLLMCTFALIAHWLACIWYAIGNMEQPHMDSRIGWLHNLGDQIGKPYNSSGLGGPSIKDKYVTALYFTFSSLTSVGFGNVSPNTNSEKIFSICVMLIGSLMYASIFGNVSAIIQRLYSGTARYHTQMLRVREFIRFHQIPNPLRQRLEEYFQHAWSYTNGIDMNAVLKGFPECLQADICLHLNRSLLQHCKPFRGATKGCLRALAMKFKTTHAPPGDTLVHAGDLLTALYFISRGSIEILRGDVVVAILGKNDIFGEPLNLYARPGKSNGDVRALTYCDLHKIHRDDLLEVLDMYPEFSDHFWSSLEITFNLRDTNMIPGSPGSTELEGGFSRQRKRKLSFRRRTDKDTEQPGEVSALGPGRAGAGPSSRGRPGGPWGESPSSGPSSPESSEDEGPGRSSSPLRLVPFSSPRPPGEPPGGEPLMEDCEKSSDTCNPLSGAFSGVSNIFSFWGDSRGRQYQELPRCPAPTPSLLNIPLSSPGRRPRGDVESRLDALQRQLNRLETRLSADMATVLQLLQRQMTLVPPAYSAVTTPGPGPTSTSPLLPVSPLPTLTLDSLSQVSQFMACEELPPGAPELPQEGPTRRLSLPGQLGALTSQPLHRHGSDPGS
T1 sequence (Q13639 whole entry): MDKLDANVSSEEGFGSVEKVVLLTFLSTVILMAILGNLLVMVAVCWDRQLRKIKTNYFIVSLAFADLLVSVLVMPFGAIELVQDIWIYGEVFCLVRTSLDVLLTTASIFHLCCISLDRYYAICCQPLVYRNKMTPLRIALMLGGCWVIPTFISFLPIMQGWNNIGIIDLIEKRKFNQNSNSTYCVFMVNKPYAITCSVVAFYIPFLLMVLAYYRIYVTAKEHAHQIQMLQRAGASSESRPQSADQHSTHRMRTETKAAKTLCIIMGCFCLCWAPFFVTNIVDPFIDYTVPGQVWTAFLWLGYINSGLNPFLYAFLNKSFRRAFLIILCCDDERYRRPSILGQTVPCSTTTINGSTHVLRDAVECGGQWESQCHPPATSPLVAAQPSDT

For O=C(OCC1CCN(Cc2ccc(-c3ccccc3-c3nn[nH]n3)cc2)CC1)c1c2n(c3ccccc13)CCCO2 [Compound 4], the Kb (human 5-HT4(b) receptor [1]; Antagonist pKb value) was 0.00447 nM.
With CCCCN1CCC(CNC(=O)c2c3n(c4ccccc24)CCCO3)CC1 [SB207266, reference compound] the Agonist/Antagonist properties (human 5-HT4(b) receptor [1]) was “Antagonist”, the Kb (human 5-HT4(b) receptor [1]; [3]) was 0.0537 nM and 0.0372 nM and 0.269 nM and the Kd (human 5-HT4(b) receptor [2]; [4]) was 0.263 nM and 0.209 nM and 0.166 nM and 0.0355 nM and 0.0407 nM.
In the case of O=C(OCC1CCN(C2CCCC(C(=O)O)C2)CC1)c1c2n(c3ccccc13)CCCO2 (stereo not shown) [Compound 25], the Agonist/Antagonist properties (human 5-HT4(b) receptor [1]) is reported as “Antagonist”, the Kb (human 5-HT4(b) receptor [1]; [3]) is reported as 2.51 nM and the Kd (human 5-HT4(b) receptor [2]) is reported as 1.2 nM.
In the case of COC(=O)c1ccccc1-c1ccc(CN2CCC(COC(=O)c3c4n(c5ccccc35)CCCO4)CC2)cc1 [Compound 7], the Kb (human 5-HT4(b) receptor [1]; Antagonist pKb value) is reported as 0.0132 nM and 0.0479 nM, the Kd (human 5-HT4(b) receptor [2]) is reported as 0.00251 nM and the IC50 (hERG ion channel) is reported as 131 nM.
With COC(=O)c1ccccc1-c1ccc(CN2CCC(CNC(=O)c3cc(Cl)c(N)cc3OC)CC2)cc1 [Compound 17] the Kd (human 5-HT4(b) receptor [2]; [4]) was 3.72 nM and 5.01 nM.
With COc1cc(N)c(Cl)cc1C(=O)NCC1CCN(Cc2ccc(-c3ccccc3-c3nn[nH]n3)cc2)CC1 [Compound 20] the Kd (human 5-HT4(b) receptor [2]; [4]) was 18.6 nM and 27.5 nM.
In the case of Cn1cc(C(=O)OCC2CCN(CCNS(C)(=O)=O)CC2)c2ccccc21 [GR113808, 1-methyl-1H-indole-3-carboxylic acid, [1-[2-[(methylsulfonyl)amino]ethyl]-4-piperidinyl]methyl ester, reference compound], the Kb (human 5-HT4(b) receptor [1]; Antagonist pKb value) is reported as 0.0891 nM, the Agonist/Antagonist properties (human 5-HT4(b) receptor [1]) is reported as “Antagonist” and the Kd (human 5-HT4(b) receptor [2]) is reported as 0.112 nM and 0.0389 nM.
COc1cc(N)c(Cl)cc1C(=O)NCC1CCN(Cc2ccc(-c3ccccc3C(=O)O)cc2)CC1 [Compound 18] was tested, and the Kd (human 5-HT4(b) receptor [2]; [4]) was 174 nM and 126 nM.
For CC(C(=O)O)c1ccc(CN2CCC(COC(=O)c3c4n(c5ccccc35)CCCO4)CC2)cc1 (stereo not shown) [Compound 27], the Kb (human 5-HT4(b) receptor [1]; Antagonist pKb value) was 1.62 nM, the Kd (human 5-HT4(b) receptor [2]) was 0.513 nM and the IC50 (hERG ion channel) was 25000 nM.
CC(C)(C(=O)O)c1ccc(CN2CCC(COC(=O)c3c4n(c5ccccc35)CCCO4)CC2)cc1 [Compound 29] showed a Kb (human 5-HT4(b) receptor [1]; [3]) of 1.66 nM and a Kd (human 5-HT4(b) receptor [2]) of 0.355 nM.
O=C(NCC1CCN(Cc2ccc(-c3ccccc3-c3nn[nH]n3)cc2)CC1)c1c2n(c3ccccc13)CCCO2 [Compound 2] was tested, and the Agonist/Antagonist properties (human 5-HT4(b) receptor [1]) was “Antagonist”, the Kd (human 5-HT4(b) receptor [2]) was 3.89 nM and 4.17 nM and 4.37 nM and the IC50 (hERG ion channel; [5]) was 27500 nM.
In the case of O=C(O)c1ccccc1-c1ccc(CN2CCC(COC(=O)c3c4n(c5ccccc35)CCCO4)CC2)cc1 [Compound 8], the Kb (human 5-HT4(b) receptor [1]; Antagonist pKb value) is reported as 0.0631 nM and 0.331 nM, the Kd (human 5-HT4(b) receptor [2]) is reported as 0.0363 nM and 0.0776 nM and the IC50 (hERG ion channel; [5]) is reported as 47500 nM.
O=C(OCC1CCN(C2C3CC4C(C3C(=O)O)C42)CC1)c1c2n(c3ccccc13)CCCO2 (stereo not shown) [Compound 23] was tested, and the Kb (human 5-HT4(b) receptor [1]; Antagonist pKb value) was 3.63 nM, the Agonist/Antagonist properties (human 5-HT4(b) receptor [1]) was “Antagonist” and the Kd (human 5-HT4(b) receptor [2]) was 1.51 nM.
O=C(OCC1CCN(C2CCC(C(=O)O)C2)CC1)c1c2n(c3ccccc13)CCCO2 (stereo not shown) [Compound 24] was tested, and the Agonist/Antagonist properties (human 5-HT4(b) receptor [1]) was “Antagonist”, the Kb (human 5-HT4(b) receptor [1]; [3]) was 2.51 nM and the Kd (human 5-HT4(b) receptor [2]) was 1.15 nM. The IC50 (hERG ion channel; [5]) was 209000 nM.

Source: patent publication US20120094989A1, “5-HT RECEPTOR MODULATING COMPOUNDS” (priority 2009, published 2012)
